In patent US7101980B2, “Derivatives, conjugates, and antibodies for detecting ecstasy-class analytes” (Roche Diagnostics Operations, Inc., priority 2002, dated 2006):

How the values were obtained:
Type in all cases: binding, mouse
antibody NEAMP 62.1 = experiment: Cross-reactivity of NEAMP 62.1 with various drugs generated in a KIMS assay (ONLINE DAT II); details: antibody NEAMP 62.1 (immunogen 26, Q=KLH); KIMS immunoassay; MDEA as standard = 100
antibody NEAMP 48.2 = experiment: Cross-reactivity of NEAMP 48.2 with various drugs generated in a KIMS assay (ONLINE DAT II); details: antibody NEAMP 48.2 (immunogen 26, Q=KLH); KIMS immunoassay; MDEA as standard = 100
antibody MDMA 2.1.1 = experiment: Cross-reactivity of antibody MDMA 2.1.1 with various drugs (ELISA cross-reactivity assay); details: antibody MDMA 2.1.1 (elicited by immunogen 12, T=KLH); ED50 of standard / ED50 of drug x 100; MDMA = 100
Experimental: In Table 1, the abbreviation d-AMP represents d-amphetamine, the abbreviation d-MAMP represents d-methamphetamine, the abbreviation l-AMP represents l-amphetamine, the abbreviation l-MAMP represents l-methamphetamine, and the abbreviation MDPA represents 3,4-methylenedioxy-N-propylamphetamine.
Microplates were coated with […] methylenedioxymethamphetamine-BSA conjugate 12 (T=BSA, 12b) at a concentration of 1 mg/mL, and separate microplates were coated with either 100 μL methamphetamine-BSA (MAMP-BSA) 28 at a concentration of 1 mg/mL or with 100 μL of amphetamine-BSA (AMP-BSA) 30 at a concentration of 1 mg/mL.
The plates were incubated covered for 1 hour at 37° C. (humidified). The plates were then emptied and filled with a post-coat solution consisting of Tris buffer, 1% gelatin hydrolysate, 2% sucrose, and 0.17% TWEEN 20. (All reagents were from Sigma Chemical Co.) The plates were incubated covered for an additional 1 hour at 37° C. (humidified), after which they were washed with phosphate-buffered saline containing 0.1% TWEEN 20. The plates were then filled with a 2% sucrose solution in 0.15 M Tris, pH 7.2–7.4, briefly, then emptied and allowed to air dry at room temperature. When dried, the plates were packed in ZIPLOC (Dow Chemical Co.) plastic bags containing several desiccant pillows, sealed, and stored at 4° C. until use.
For the primary screening of the growing clones from the fusion plates, only the MDMA-BSA 12 (T=BSA, 12b) coated plates were used. Fifty microliters of PBS was added to each well, followed by 50 μL of the sample of culture media from wells on the fusion plate, diluted 1:10 in PBS. The plates were incubated covered for 1 hour at 37° C., then washed with PBS-TWEEN (0.1%). The wells were then filled with 100 μL of goat anti-mouse IgG-HRP conjugate (Zymed Labs), diluted in PBS-TWEEN, and the plates re-incubated for 1 hour. The plates were then washed again and 100 μL of K-Blue Substrate (Neogen Corp.) added. This was allowed to develop for 5–15 minutes, the reaction being stopped by the addition of 100 μL of 1 N HCl. Color was read by means of a microplate reader at 450 nm and collected by computer for analysis. […] Cells were subjected to limiting dilution subcloning, and upon appearance of growth, were tested by a secondary screen.
(§1) Supernatants were subjected to serial dilutions and re-tested in the ELISA screen above. The dilution providing for about a 50% reduction from the maximum OD was chosen for proceeding to cross-reactivity testing. This comprised repeating the preceding assay with the antibody at the chosen dilution and in the presence of varying concentrations of drugs.

antibody NEAMP 1.3 = experiment: Cross-reactivity of NEAMP 1.3 with various drugs generated in an ELISA assay; details: antibody NEAMP 1.3 (immunogen 26, Q=KLH), MDEA as standard = 100
Experimental: Antibodies elicited by the immunogen 12, e.g., wherein T is KLH, show good response and specificity to ecstasy-class drugs. Furthermore, these antibodies show little or no cross-reactivity to related drugs. By determining the drug concentration that results in a 50% reduction in binding (ED50) of a standard, methamphetamine, dividing by the ED50 of each other drug, and then multiplying the result by 100, the percent cross-reactivity was calculated.
Tables 2, 3, and 4 show cross-reactivity data for the antibodies NEAMP 1.3, NEAMP 48.2, and NEAMP 62.1, which were generated in response to immunogen 26 of FIG. 2 wherein Q is KLH. By the procedure described above, using MDEA as a standard, the percent cross-reactivities shown in Tables 2, 3, and 4 were calculated.
Microplates were coated with 100 μL methamphetamine-BSA conjugate 28 (for screening for NEAMP 1.3) or 100 μL of MDEA-BSA conjugate 36 (for screening for NEAMP 48.2 and NEAMP 62.1), and separate microplates were coated with 100 μL N-ethylamphetamine-BSA 26 (Q=BSA, 26b) at 1 μg/mL in 0.1 M carbonate buffer, pH 9.5, for 1 hour at 37° C. (humidified). The plates were then emptied and filled with a post-coat solution containing Tris buffer, 1% gelatin hydrolysate, 2% sucrose, and 0.17% TWEEN 20. (All reagents were from Sigma Chemical Co.) The plates were incubated for an additional 1 hour at 37° C. (humidified), after which they were washed with phosphate-buffered saline containing 0.1% TWEEN 20. The plates were then filled with a 2% sucrose solution in 0.15 M Tris, pH 7.2–7.4, briefly, then emptied and allowed to air-dry at room temperature. When dried, the plates were packed in ZIPLOC bags containing several desiccant pillows, sealed, and stored at 4° C. until use.
When the growing clones were judged ready for testing, 25 μL of supernatant from the wells were taken and transferred to 96-well flexible plates. Culture medium was added to each well to provide a 1:10 dilution of the media sample. One hundred microliters of the diluted sample were transferred to each of the coated plates above. The plates were incubated covered for 1 hour at 37° C., then washed with PBS-TWEEN. The wells were then filled with 100 μL of goat anti-mouse IgG-HRP conjugate (Zymed Labs) diluted in PBS-TWEEN and the plates re-incubated for 1 hour. The plates were then washed again, and 100 μL of K Blue substrate (Neogen Corp) was added. This was allowed to develop for 5–15 minutes, the reaction being stopped by the addition of 100 μL of 1 N HCl. Color was read by means of a microplate reader at […] and collected by computer for analysis. A criterion for selection was binding to the methamphetamine-BSA conjugate 28 (for selection of NEAMP 1.3) or MDEA-BSA conjugate 36 (for screening for NEAMP 48.2 and NEAMP 62.1). Clones chosen were immediately subcloned and, when ready, retested. Stable subclones were expanded, frozen, and the spent media used to determine specificity using the cross-reactivity assay.
as §1

| Compound | % Cross-reactivity (antibody NEAMP 62.1) [%] | % Cross-reactivity (antibody NEAMP 48.2) [%] | % Cross-reactivity (antibody MDMA 2.1.1) [%] | % Cross-reactivity (antibody NEAMP 1.3) [%] |
| --- | --- | --- | --- | --- |
| CN[C@H](C)Cc1ccccc1 [l-MAMP, l-methamphetamine] | 0.2 | 0.5 | 0 |  |
| CCC(Cc1ccc2c(c1)OCO2)NC (centres unmarked) [MBDB, 3,4-methylenedioxyphenyl-N-methylbutanamine] | 13 | 6 | 26.1 | 3.9 |
| CN[C@@H](C)[C@@H](O)c1ccccc1 [pseudoephedrine] |  |  | 0 |  |
| NCCc1ccc(O)cc1 [tyramine] |  |  | 0 |  |
| CN[C@@H](C)[C@@H](O)c1ccccc1 [d-pseudoephedrine] | 0.1 | 0.06 |  | 0.4 |
| CCNC(C)Cc1ccc2c(c1)OCO2 (centres unmarked) [MDEA, 3,4-methylenedioxy-N-ethylamphetamine] | 100 | 100 | 204 | 100 |
| C[C@H](N)Cc1ccccc1 [d-AMP, d-amphetamine] |  | 0 | 0 | 6.4 |
| CNC(C)Cc1ccc2c(c1)OCO2 (centres unmarked) [MDMA, 3,4-methylenedioxy-N-methylamphetamine] | 4.0 | 5 | 100 | 22.5 |
| C[C@@H](N)Cc1ccccc1 [l-AMP, l-amphetamine] |  |  | 0 | 6.6 |
| C[C@H]1[C@H](c2ccccc2)OCCN1C [phendimetrazine] | 0.1 | 0.04 |  | 0.12 |
| c1cc2c(cc1[C@H]1OC[C@H]3[C@@H]1CO[C@@H]3c1ccc3c(c1)OCO3)OCO2 [sesamin] |  |  | 0 |  |
| NC[C@H](O)c1ccc(O)c(O)c1 [norepinephrine] |  |  | 0 |  |
| CCC(N)Cc1ccc2c(c1)OCO2 (centres unmarked) [BDB, 3,4-methylenedioxyphenyl-2-butanamine] | 46 | 1 | 20.5 |  |
| CC(N)C(O)c1ccccc1 (centres unmarked) [phenylpropanolamine] |  |  | 0 |  |
| CNCC(O)c1ccc(O)c(O)c1 (centres unmarked) [adrenaline] |  |  | 0 |  |
| CC(N)Cc1ccc2c(c1)OCO2 (centres unmarked) [MDA, 3,4-methylenedioxyamphetamine] |  |  | 60.6 |  |
| CN[C@@H](C)Cc1ccccc1 [d-MAMP, d-methamphetamine] | 0.5 |  | 0.65 | 19.7 |
| CN[C@@H](C)[C@H](O)c1ccccc1 [ephedrine] |  |  | 0 |  |
| CN[C@@H](C)[C@H](O)c1ccccc1 [l-ephedrine] | 0.0 | 0 |  | 1.3 |
| CCCNC(C)Cc1ccc2c(c1)OCO2 (centres unmarked) [MDPA, 3,4-methylenedioxy-N-propylamphetamine] |  |  | 365 |  |
| CC(C)(N)Cc1ccccc1 [phentermine] |  |  | 0 |  |
| CCNC(C)Cc1ccccc1 (stereo not drawn) [d-N-ethylamphetamine] | 11 | 130 |  |  |
